Results as given in patent US8822754B2, “Ecdysone receptor-based inducible gene expression system” (Intrexon Corporation, priority 2000, dated 2014).

Experiments:
Format in all cases: cell-based, Choristoneura fumiferana
CfEcR = assay: Comparison of switches in the mammalian cell lines tested (Tables 1-4); settings: see Tables 1-4
Method: Several commercially available lipofactors as well as electroporation methods were evaluated and the best conditions for transfection of each cell line were developed. CHO, NIH3T3, 293 and CV1 cells were grown to 60% confluency. DNAs corresponding, to the various switch constructs outlined in Examples 1.1 through 1.10 were transfected into CHO cells, NIH3T3 cells, 293 cells, or CV1 cells as follows.
(§1) Cells were harvested 24-48 hr after adding ligands. […] Twenty μl of lysate was assayed.

CfVgRXR + MmRXR = assay: Transactivation of reporter genes through switch 1.9 in CV1 cells; settings: switch 1.9 CfVgRXR + MmRXR, pIND(SP1)LacZ
Method: This example was prepared in the same way as switch 1.8 except DinEcR was replaced with a truncated CfEcR comprising a partial A/B domain and the complete CDEF domains [SEQ ID NO: 62 (polynucleotide) and SEQ ID NO: 63 (polypeptide)].
(§2) The same procedures described for NIH3T3 cells were followed for CV1 cells
as §1

GAL4USP + VP16CfEcR [1] = assay: Transactivation of reporter genes through switch 1.5 in 293 cells; settings: switch 1.5 GAL4USP + VP16CfEcR, pGAL4RELuc
Method: (§3) This construct was prepared in the same way as switch 1.3 except MmRXRDEF was replaced with CfUSPDEF (SEQ ID NO: 58).
The same procedures described for CHO were followed for 293 cells except that the cells were plated in biocoated plates to avoid clumping.
as §1

GAL4USP + VP16CfEcR [2] = assay: Transactivation of reporter genes through switch 1.5 in CHO cells; settings: switch 1.5 GAL4USP + VP16CfEcR, pGAL4RELuc
Method: as §3
The cells were harvested and reporter activity was assayed.
as §1

GAL4CfEcRVP16 = assay: Transactivation of reporter genes through switch 1.6 in CV1 cells; settings: switch 1.6 GAL4CfEcRVP16, pGAL4RELuc
Method: This construct was prepared so that both the GAL4 DNABD and the VP16AD were placed on the same molecule. GAL4DNABD (SEQ ID NO: 41) and VP16AD (SEQ ID NO: 45) were fused to CfEcRDEF (SEQ ID NO: 3) at N- and C-termini respectively.
as §2, §1

Compound: CCc1c(OC)cccc1C(=O)NN(C(=O)c1cc(C)cc(C)c1)C(C)(C)C [N-(2-ethyl-3-methoxybenzoyl)-N′-(3,5-dimethylbenzoyl)-N′-tert-butylhydrazine]
- potency as activators of CfEcR as compared to DmEcR (CfEcR): more potent activators of CfEcR
- Mean Fold Activation Through N-(2-ethyl-3-methoxybenzoyl)-N′-(3,5-dimethylbenzoyl)-N′-t-butylhydrazine (CfVgRXR + MmRXR): 7 fold
- Mean Fold Activation Through N-(2-ethyl-3-methoxybenzoyl)-N′-(3,5-dimethylbenzoyl)-N′-t-butylhydrazine (GAL4USP + VP16CfEcR [1]): 2 fold
- Mean Fold Activation with 50 μM N-(2-ethyl-3-methoxybenzoyl)-N′-(3,5-dimethylbenzoyl)-N′-t-butylhydrazine (GAL4USP + VP16CfEcR [2]): 2 fold
- Mean Fold Activation Through N-(2-ethyl-3-methoxybenzoyl)-N′-(3,5-dimethylbenzoyl)-N′-t-butylhydrazine (GAL4CfEcRVP16): 6 fold
